From patent publication US8618065B2 (Max-Planck-Gesellschaft zur Foerderung der Wissenschaften …, priority 2009, dated 2013)

How the values were obtained:
OVA/alum-sensitized mice = experiment: Asthma studies: ovalbumin sensitization, bronchial lavage, FACS; format: in vivo, mice (BALE/c line)
Protocol: An immune response to ovalbumin was provoked by administering ovalbumin together with aluminium hydroxide. The immune response can be tracked with the help of the T helper cells population (CD4+) which has migrated into the bronchial lining and the eosinophilic granulocytes which have migrated in.
Female mice (BALE/c line) were sensitized by intraperitoneal (i.p.) administration of 50 μg ovalbumin (OVA) dissolved in phosphate buffer (PBS) plus 100 μL aluminium hydroxide (alum) with a total volume of 200 μL per mouse on day 0.100 μg OVA in PBS (50 μL total volume) in each case was then administered intranasally to the OVA/alum-sensitized mice under mild anaesthesia (isoflurane) on days 7 to 10. From these animals groups were formed which additionally received on days 7, 9, and 11 either 250 μg Cs-103 in PBS (i.p.), PBS only (diluent) or no further addition (−). On day 12 all the animals were killed by CO2 exposure and cells of the bronchial tract were obtained by bronchial lavage (BAL) by means of a cannula introduced into the trachea washing three times each with 1 ml cold PBS. The obtained cells of the BAL were then double dyed (a) with Cy-Chrome-conjugated anti-mouse CD4-antibodies and (b) with FITC-conjugated anti-mouse CD62L-antibodies. The cells were then analyzed by means of FACS. Effector/Memory […] T cells were distinguished as CD4^+/CD62L^− lymphocytes and eosinophilic cells with the help of their scattered light properties (FSC/SSC).

[1] = Toxicity test: leukocyte count in blood and spleen; format: in vivo, mice; settings: three doses of 250 μg on 1st, 3rd and 5th day, cell count on 6th day; FIGS. 4 and 5
Protocol: FIG. 4 the number of leukocytes in the blood before and after administering three doses (1st, 3rd and 5th day) of 250 μg Cs-103 to each animal (determination on the 6th day); and
FIG. 5 the number of leukocytes in the spleen before and after administering three doses (1st, 3rd and 5th day) of 250 μg Cs-103 to each animal (determination on the 6th day).
As the leukocyte count in blood and spleen increases in the case of inflammatory diseases, the number of these cells was used as toxicity marker. As FIGS. 4 and 5 show, the selected compound Cs-103 (after administering three doses of 250 μg Cs-103, on the 1st, 3rd and 5th day, and cell count determination on the 6th day) is harmless in this assay.

[2] = blood cells vs plasma; cited from earlier work

Compound	number of eosinophilic granulocytes in the lung lavage fluid (OVA/alum-sensitized mice; 250 μg Cs-103, FIG. 3)	number of eosinophilic granulocytes which migrated through ovalbumin sensitization into the bronchial lining (OVA/alum-sensitized mice; 250 μg Cs-103, control: OVA-sensitized animals, FIG. 2)	number of CD4-positive T cells which migrated through ovalbumin sensitization into the bronchial lining (OVA/alum-sensitized mice; 250 μg Cs-103 i.p. on days 7, 9, 11, control: OVA-sensitized animals, FIG. 1)	leukocyte count in blood and spleen as toxicity marker [1]	concentration in blood cells relative to surrounding plasma [2]
CC[C@@H]1NC(=O)[C@H]([C@H](O)[C@H](C)CCN(CCC(=O)N[C@H](CCC(=O)O)C(=O)N[C@H](CCC(=O)O)C(=O)N[C@H](CCC(=O)O)C(=O)N[C@H](CCC(=O)O)C(=O)N[C@H](CCC(=O)O)C(=O)N[C@H](CCC(=O)O)C(=O)NCC(=O)O)C(C)=O)N(C)C(=O)[C@H](C(C)C)N(C)C(=O)[C@H](CC(C)C)N(C)C(=O)[C@H](CC(C)C)N(C)C(=O)[C@@H](C)NC(=O)[C@H](C)NC(=O)[C@H](CC(C)C)N(C)C(=O)[C@H](C(C)C)NC(=O)[C@H](CC(C)C)N(C)C(=O)CN(C)C1=O [Cs-103]	very significantly reduced	very significantly reduced	very significantly reduced	harmless	–
C/C=C/C[C@@H](C)[C@@H](O)[C@H]1C(=O)N[C@@H](CC)C(=O)N(C)CC(=O)N(C)[C@@H](CC(C)C)C(=O)N[C@@H](C(C)C)C(=O)N(C)[C@@H](CC(C)C)C(=O)N[C@@H](C)C(=O)N[C@H](COCCO)C(=O)N(C)[C@@H](CC(C)C)C(=O)N(C)[C@@H](CC(C)C)C(=O)N(C)[C@@H](C(C)C)C(=O)N1C [SDZ IMM 125]	–	–	–	–	approximately 8 ×
